# Laboratory results: US8906919B2, “Treatment of non-neuronal and non-myocardial cell, tissue and organ damage and associated pain with persistent sodium current blockers” (Ozteo Pty Ltd, priority 2009, dated 2014)
# Where two headings read alike, the source gives them in different places.
# Legend:
# kidney tissue [1] = details: rat; for kidney glutathione levels compared with non-treated reperfused group: 3 h ischaemia and 45 min reperfusion (FIG. 9)
# Description: (§1) Additional studies were performed on kidney tissue in 48 isoflurane-anaesthetised, male Wistar albino rats (300-350 g). […] A further ten minutes was allowed for drug circulation prior to the induction of ischaemia. Tissue ischaemia was produced in all animals by occluding the renal artery to the left kidney. Immediately prior to occlusion, a 1,000 unit bolus of IV heparin was injected to prevent blood clotting and to permit reperfusion. Occlusion was maintained for 3 hours following which, in 6 animals in each group, the occlusion was released and reperfusion of the kidney was allowed. Samples of reperfused tissue were excised 45 minutes following reperfusion. Samples of non-reperfused ischaemic tissue were excised 3 hours post occlusion. Samples of ischaemic tissue and of reperfused tissue were taken from different animals. Samples of non-ischaemic, non-treated tissue were excised from the right kidney of the non-treated group.
# Persistent sodium current blockade was evaluated for its effect on kidney tissue glutathione levels during ischaemia and reperfusion.
# kidney tissue [2] = details: rat, iv before ischaemia (riluzole 5 mg/kg, lidocaine 1 mg/kg, lamotrigine 20 mg/kg)
# Description: as §1
# In addition, persistent sodium current blockade was assessed for its affect on kidney tissue DNA fragmentation during ischaemia and reperfusion. […] All panels were illuminated by light with wavelength around 520 nm to show DNA fragmentation.
# [3] = iv before ischaemia (riluzole 5 mg/kg, lidocaine 1 mg/kg, lamotrigine 20 mg/kg)
# [4] = 3 hours of ischaemia and 45 minutes of reperfusion (FIG. 10)
# [5] = 3 hours of ischaemia and no reperfusion (FIG. 10)
Compound,kidney glutathione levels compared with non-treated reperfused group (kidney tissue [1]; [3]),damaged nuclei (DNA fragmentation) in renal tubules compared with non-treated tissue (kidney tissue [2]; [4]),damaged nuclei (DNA fragmentation) in renal tubules compared with non-treated tissue (kidney tissue [2]; [5]),"kidney glutathione levels compared with non-treated, non-ischaemic and non-reperfused group (kidney tissue [1]; iv before ischaemia (riluzole 5 mg/kg, lidocaine 1 mg/kg), 3 h ischaemia and 45 min reperfusion (FIG. 9, vs 901))","kidney glutathione levels after ischaemia (kidney tissue [1]; iv before ischaemia (riluzole 5 mg/kg, lidocaine 1 mg/kg, lamotrigine 20 mg/kg), 3 h renal artery occlusion, no reperfusion (FIG. 8))"
Nc1nnc(-c2cccc(Cl)c2Cl)c(N)n1 [lamotrigine],substantially higher,the reduction in damaged nuclei is still significant,the reduction in damaged nuclei is still significant,,
CCN(CC)CC(=O)Nc1c(C)cccc1C [lidocaine],significantly higher,considerably fewer damaged nuclei,considerably fewer damaged nuclei,not significantly different,not significantly reduced
